For 39 compounds, Ki results are on record in patent US8158668B2, “Methods for treating CNS disorders with 4-imidazole derivatives” (Hoffmann-La Roche Inc., priority 2006, dated 2012).

Read-outs that look alike come from different tables or passages of the source.

The target in the experiment is T1, mouseTAAR1 (Mus musculus, UniProt Q923Y8).
T1 construct: expressed in transfected cells; host or cells: HEK293 (ATCC #CRL-1573), stably transfected with pIRESneo2 expression plasmid; membrane preparation
Nature of the experiment: Radioligand binding on membranes of HEK293 cells stably expressing TAAR1. As for the experimental part:
For the construction of expression plasmids the coding sequences of human, rat and mouse TAAR 1 were amplified from genomic DNA essentially as described by Lindemann et al.. The Expand High Fidelity PCR System (Roche Diagnostics) was used with 1.5 mM Mg^2+ and purified PCR products were cloned into pCR2.1-TOPO cloning vector (Invitrogen) following the instructions of the manufacturer. PCR products were subcloned into the pIRESneo2 vector (BD Clontech, Palo Alto, Calif.), and expression vectors were sequence verified before introduction in cell lines.
For the generation of stably transfected cell lines HEK293 cells were transfected with the pIRESneo2 expression plasmids containing the TAAR coding sequences (described above) with Lipofectamine 2000 (Invitrogen) according to the instructions of the manufacturer, and 24 hrs post transfection the culture medium was supplemented with 1 mg/ml G418 (Sigma, Buchs, Switzerland). After a culture period of about 10 d clones were isolated, expanded and tested for responsiveness to trace amines (all compounds purchased from Sigma) with the cAMP Biotrak Enzyme immunoassay (EIA) System (Amersham) following the non-acetylation EIA procedure provided by the manufacturer.
Cells at confluence were rinsed with ice-cold phosphate buffered saline without Ca^2+ and Mg^2+ containing 10 mM EDTA and pelleted by centrifugation at 1000 rpm for 5 min at 4° C. The pellet was then washed twice with ice-cold phosphate buffered saline and cell pellet was frozen immediately by immersion in liquid nitrogen and stored until use at −80° C. Cell pellet was then suspended in 20 ml HEPES-NaOH (20 mM), pH 7.4 containing 10 mM EDTA, and homogenized with a Polytron (PT 3000, Kinematica) at 10,000 rpm for 10 s. The homogenate was centrifuged at 48,000×g for 30 min at 4° C. and the pellet resuspended in 20 ml HEPES-NaOH (20 mM), pH 7.4 containing 0.1 mM EDTA (buffer A), and homogenized with a Polytron at 10,000 rpm for 10 s. The homogenate was then centrifuged at 48,000×g for 30 min at 4° C. and the pellet resuspended in 20 ml buffer A, and homogenized with a Polytron at 10,000 rpm for 10 s. Protein concentration was determined by the method of Pierce (Rockford, Ill.). The homogenate was then centrifuged at 48,000×g for 10 min at 4° C., resuspended in HEPES-NaOH (20 mM), pH 7.0 including MgCl2 (10 mM) and […] homogenized with a Polytron at 10,000 rpm for 10 s.
Binding assay was performed at 4° C. in a final volume of 1 ml, and with an incubation time of 30 min. […] Competing ligands were tested in a wide range of concentrations (10 pM-30 μM). […] Each experiment was performed in duplicate. All incubations were terminated by rapid filtration through UniFilter-96 plates (Packard Instrument Company) and glass filter GF/C, pre-soaked for at least 2 h in polyethylenimine 0.3%, and using a Filtermate 96 Cell Harvester (Packard Instrument Company). The tubes and filters were then washed 3 times with 1 ml aliquots of cold buffer B. Filters were not dried and soaked in Ultima gold (45 μl/well, Packard Instrument Company) and bound radioactivity was counted by a TopCount Microplate Scintillation Counter (Packard Instrument Company).

Setting [1] is: mouseTAAR1, competition with [3H]-rac-2-(1,2,3,4-tetrahydro-1-naphthyl)-2-imidazoline, 4° C., 30 min, read-out: Ki.

One may read the Ki as the equilibrium dissociation constant of an inhibitor or competing ligand from its target.

T1 sequence (Q923Y8 whole entry): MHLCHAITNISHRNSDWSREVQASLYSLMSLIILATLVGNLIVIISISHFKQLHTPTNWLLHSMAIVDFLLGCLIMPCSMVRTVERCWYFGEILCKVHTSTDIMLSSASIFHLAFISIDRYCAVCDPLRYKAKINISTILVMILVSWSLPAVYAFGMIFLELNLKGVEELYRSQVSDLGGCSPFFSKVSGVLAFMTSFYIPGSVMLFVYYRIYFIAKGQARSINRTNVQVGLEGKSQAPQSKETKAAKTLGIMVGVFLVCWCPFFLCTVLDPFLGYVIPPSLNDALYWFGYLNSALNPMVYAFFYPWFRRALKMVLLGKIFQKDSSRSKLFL

In the case of `C[C@@H](c1cnc[nH]1)c1cccc(F)c1F` [Example 46, 4-[(R)-1-(2,3-Difluoro-phenyl)-ethyl]-1H-imidazole], the affinity corresponds to a Ki of 7.8 nM.
`c1ccc2cc(Cc3c[nH]cn3)ccc2c1` [Example 39, 4-Naphthalen-2-ylmethyl-1H-imidazole] displayed a Ki of 29 nM.
On the same count and under the same terms, under `c1cc(Cc2cnc[nH]2)c2occc2c1` [Example 51, 4-Benzofuran-7-ylmethyl-1-imidazole] stands 9.3 nM.
Still for that read-out and setting: under `CCc1ccc(OC)c(CC)c1Cc1cnc[nH]1` [Example 70, 4-(2,6-Diethyl-3-methoxy-benzyl)-1H-imidazole] stands 3.8 nM; under `CC(c1cccc(F)c1)c1cnc[nH]1` (racemic) [Example 15, rac-4-[1-(3-Fluoro-phenyl)-ethyl]-1H-imidazole], 19 nM.
In turn, `CC(C)(c1ccccc1)c1cnc[nH]1` [Example 41, 5-(1-methyl-1-phenyl-ethyl)-1H-imidazole trifluoro-acetate] had a Ki of 46.1 nM.
Still for that read-out and setting: under `CCc1cccc(C2CC2)c1Cc1cnc[nH]1` [Example 58, 4-(2-Cyclopropyl-6-ethyl-benzyl)-1H-imidazole] stands 9.8 nM.
With `CC(c1c[nH]cn1)c1cccc2ccccc12` (racemic) [Example 40, rac-4-(1-Naphthalen-1-yl-ethyl)-1H-imidazole], the Ki turned out to be 3 nM.
Same read-out and setting: in the case of `CCC(c1cc(F)cc(F)c1)c1cnc[nH]1` (racemic) [Example 4, rac-4-[1-(3,5-Difluoro-phenyl)-propyl]-1H-imidazole] it was 28 nM.
For `Clc1cccc(Cl)c1Cc1cnc[nH]1` [Example 33, 4-(2,6-Dichloro-benzyl)-1H-imidazole], the Ki came to 3 nM.
`CC(c1ccccc1)c1cnc[nH]1` (racemic) [Example 14, rac-4-(1-Phenyl-ethyl)-1H-imidazole] had a Ki of 4 nM.
Compound `CCc1ccc(Oc2ccccc2)c(CC)c1Cc1cnc[nH]1` [Example 80, 4-(2,6-Diethyl-3-phenoxy-benzyl)-1H-imidazole] returned a Ki of 13.9 nM.
Turning to `c1cc2c(c(Cc3cnc[nH]3)c1)OCC2` [Example 50, 4-(2,3-Dihydro-benzofuran-7-ylmethyl)-1-imidazole], the affinity corresponds to a Ki of 20.2 nM.
Still for that read-out and setting: in the case of `CCc1cccc(CC)c1Cc1cnc[nH]1` [Example 26, 4-(2,6-Diethyl-benzyl)-1H-imidazole] it was 10 nM.
In turn, `CCC(c1cccc(F)c1)c1cnc[nH]1` (racemic) [Example 7, rac-4-[1-(3-Fluoro-phenyl)-propyl]-1H-imidazole] returned a Ki of 32 nM.
Compound `CCC(c1cnc[nH]1)c1ccccc1F` (racemic) [Example 6, rac-4-[1-(2-Fluoro-phenyl)-propyl]-1H-imidazole] displayed a Ki of 22 nM.
`CCc1cccc(F)c1Cc1cnc[nH]1` [Example 78, 4-(2-Ethyl-6-fluoro-benzyl)-1H-imidazole]: affinity was put at a Ki of 17.9 nM.
The compound `CCCC(c1ccccc1)c1c[nH]cn1` (racemic) [Example 1, rac-4-(1-Phenyl-butyl)-1H-imidazole] registered a Ki of 49 nM.
With `CCc1cc(Oc2ccccc2)cc(CC)c1Cc1cnc[nH]1` [Example 79, 4-(2,6-Diethyl-4-phenoxy-benzyl)-1H-imidazole], the affinity corresponds to a Ki of 5.6 nM.
Same read-out and setting: in the case of `Cc1ccc2ccccc2c1Cc1cnc[nH]1` [Example 572, 4-(2-Methyl-naphthalen-1-ylmethyl)-1H-imidazole] it was 5.6 nM; in that of `CC(c1cnc[nH]1)c1cccc(F)c1F` (racemic) [Example 17, rac-4-[1-(2,3-Difluoro-phenyl)-ethyl]-1H-imidazole], 11 nM.
`Brc1ccccc1Cc1cnc[nH]1` [Example 27, 4-(2-Bromo-benzyl)-1H-imidazole] showed a Ki of 34 nM.
On to `Clc1ccc(Oc2cccc(Cc3cnc[nH]3)c2)cc1` [Example 60, 4-[3-(4-Chloro-phenoxy)-benzyl]-1H-imidazole], for which the Ki is 27.6 nM.
Regarding `c1ccc(-c2cccc(Cc3cnc[nH]3)c2)cc1` [Example 71, 4-Biphenyl-3-ylmethyl-1H-imidazole], affinity was put at a Ki of 39.1 nM.
For `Cc1cccc(C)c1Cc1cnc[nH]1` [Example 29, 4-(2,6-Dimethyl-benzyl)-1H-imidazole], affinity was put at a Ki of 4 nM.
With `CCOc1ccc(CC)c(Cc2cnc[nH]2)c1CC` [Example 74, 4-(3-Ethoxy-2,6-diethyl-benzyl)-1H-imidazole], the Ki was 3.7 nM.
As to `Brc1cc(Cc2c[nH]cn2)c2occc2c1` [Example 49, 4-(5-Bromo-benzofuran-7-ylmethyl)-1-imidazole], the Ki stood at 0.9 nM.
Regarding `Cc1cccc(Cc2c[nH]cn2)c1C` [Example 25, 4-(2,3-Dimethyl-benzyl)-1H-imidazole, reference compound], under setting [1], the Ki stood at 43 nM.
`CCc1cccc(Cl)c1Cc1cnc[nH]1` [Example 61, 4-(2-Chloro-6-ethyl-benzyl)-1H-imidazole] came in with an inhibition constant Ki of 11.5 nM.
The compound `c1ccc(-c2ccccc2Cc2cnc[nH]2)cc1` [Example 67, 4-Biphenyl-2-ylmethyl-1H-imidazole] came in with an inhibition constant Ki of 27.6 nM.
Compound `CCc1cccc(C)c1Cc1cnc[nH]1` [Example 57, 4-(2-Ethyl-6-methyl-benzyl)-1H-imidazole] yielded a Ki of 10.8 nM.
Compound `CCOc1cc(CC)c(Cc2cnc[nH]2)c(CC)c1` [Example 72, 4-(4-Ethoxy-2,6-diethyl-benzyl)-1H-imidazole] displayed a Ki of 12.7 nM.
Turning to `CCc1cc(OCc2ccccc2)cc(CC)c1Cc1cnc[nH]1` [Example 73, 4-(4-Benzyloxy-2,6-diethyl-benzyl)-1H-imidazole], the Ki under setting [1] amounted to 11.7 nM.
Turning to `Fc1cccc(Cl)c1Cc1cnc[nH]1` [Example 12, 4-(2-Chloro-6-fluoro-benzyl)-1H-imidazole], the Ki is 19 nM.
For the compound `CCC(c1ccccc1)c1cnc[nH]1` (racemic) [Example 5, rac-4-(1-Phenyl-propyl)-1H-imidazole], the affinity corresponds to a Ki of 36 nM.
Still for that read-out and setting: in the case of `CCC(c1cnc[nH]1)c1cccc(F)c1F` (racemic) [Example 20, rac-4-[1-(2,3-Difluoro-phenyl)-propyl]-1H-imidazole] it was 18 nM; in that of `CC(c1cnc[nH]1)c1ccccc1F` (racemic) [Example 2, rac-4-[1-(2-Fluoro-phenyl)-ethyl]-1H-imidazole], 12 nM.
In turn, `CCc1cc(OC)cc(CC)c1Cc1cnc[nH]1` [Example 69, 4-(2,6-Diethyl-4-methoxy-benzyl)-1H-imidazole] showed a Ki of 2.6 nM.
In the case of `Cc1cc(C)c(C)c(Cc2cnc[nH]2)c1C` [Example 31, 4-(2,3,5,6-Tetramethyl-benzyl)-1H-imidazole], affinity was put at a Ki of 16 nM.
